pIC50, pKi: −log10 of the molar value. Several values for one entry are separate records, joined by “and”; a condition that tells them apart may be missing. Identical values can stand only once. Counter-ions that a name gives are not always drawn.
Experiments:
[1] = tested on: 5-HT in rat and mouse PFC; conditions: cited from earlier work
SERT [2] = molecular target: T1, SERT (Homo sapiens, UniProt P31645); conditions: cited from earlier work
neuronal receptors = conditions: binding affinity study; cited from earlier work
His receptor H2 = His receptor H2 (Homo sapiens, UniProt P25021); assay: Cerep Bioprint radioligand binding assay: H2; conditions: read-out: percent inhibition of the binding of a radiolabeled ligand
5-HT1A = 5-HT1A (Homo sapiens, UniProt P08908)
ADRβ1 = ADRβ1 (Homo sapiens, UniProt P08588)
5-HT2B [3] = molecular target: T2, 5-HT2B (Homo sapiens, UniProt P41595); assay: Cerep Bioprint radioligand binding assay: 5-HT2B
ADRα1B = ADRα1B (Homo sapiens, UniProt P35368); assay: cell-based
5-HT1B [4] = molecular target: 5-HT1B (Homo sapiens, UniProt P28222)
5-HT7 [5] = molecular target: T3, 5-HT7 (Homo sapiens, UniProt P34969); assay: Cerep Bioprint radioligand binding assay: 5-HT7; conditions: read-out: percent inhibition of the binding of a radiolabeled ligand
[6] = molecular target: muscarinic cholinergic receptor M1 (Homo sapiens, UniProt P11229); assay: Cerep Bioprint radioligand binding assay: M1; conditions: read-out: percent inhibition of the binding of a radiolabeled ligand
[7] = molecular target: choline transporter (CHT-1) (Homo sapiens, UniProt Q9GZV3); assay: Cerep Bioprint radioligand binding assay: CHT-1; conditions: viloxazine 10 µM
[8] = molecular target: monoamine oxidase A (MAO-A) (Rattus norvegicus, UniProt P21396); assay: Cerep Bioprint panel assay: MAO-A; conditions: read-out: percent inhibition (activity towards MAO-A)
DA receptor D2S = DA receptor D2S (Homo sapiens, UniProt P14416); assay: Cerep Bioprint radioligand binding assay: D2S; conditions: read-out: percent inhibition of the binding of a radiolabeled ligand
5-HT6 = 5-HT6 (Homo sapiens, UniProt P50406)
GABA transporter (GAT) = assay: Cerep Bioprint radioligand binding assay: GAT; conditions: viloxazine 10 µM
NET [9] = molecular target: NET (Homo sapiens, UniProt P23975); assay: Cerep Bioprint radioligand binding assay: NET; conditions: read-out: percent inhibition of the binding of a radiolabeled ligand
5-HT2B [10] = molecular target: T2, 5-HT2B; assay: cell-based
[11] = molecular target: muscarinic cholinergic receptor M4 (Homo sapiens, UniProt P08173); assay: Cerep Bioprint radioligand binding assay: M4; conditions: read-out: percent inhibition of the binding of a radiolabeled ligand
5-HT1B [12] = conditions: viloxazine 10 µM
NET [13] = molecular target: NET (Rattus norvegicus, UniProt Q63380); assay: biochemical; conditions: IC50, inhibition of [3H]-NE uptake (NET), rat hypothalamic synaptosomes
ADRα1A = ADRα1A (Homo sapiens, UniProt P35348)
[14] = molecular target: cholinergic muscarinic receptor M1 (Homo sapiens, UniProt P11229)
5-HT1D = 5-HT1D (Rattus norvegicus, UniProt P28565)
SERT [15] = molecular target: T1, SERT; assay: Cerep Bioprint radioligand binding assay: SERT; conditions: viloxazine 10 µM
5-HT7 [16] = molecular target: T3, 5-HT7; assay: cell-based; conditions: read-out: antagonistic activity at 5-HT7, inhibition
[17] = molecular target: cholinergic muscarinic receptor M3 (Homo sapiens, UniProt P20309)
dopaminergic receptor D3 = dopaminergic receptor D3 (Homo sapiens, UniProt P35462)
His receptor H1 = His receptor H1 (Homo sapiens, UniProt P35367); assay: Cerep Bioprint radioligand binding assay: H1; conditions: read-out: percent inhibition of the binding of a radiolabeled ligand
DA receptor D1 = DA receptor D1 (Homo sapiens, UniProt P21728); assay: Cerep Bioprint radioligand binding assay: D1; conditions: read-out: percent inhibition of the binding of a radiolabeled ligand
5-HT2B [18] = conditions: at all concentrations, clinical doses of 100, 200, 400, and 600 mg/day
DA receptor D3 = DA receptor D3 (Homo sapiens, UniProt P35462); assay: Cerep Bioprint radioligand binding assay: D3; conditions: read-out: percent inhibition of the binding of a radiolabeled ligand
5-HT2C [19] = molecular target: T4, 5-HT2C (Homo sapiens, UniProt P28335); assay: cell-based; conditions: CHO, read-out: Emax, agonistic activity towards 5-HT2C
[20] = molecular target: muscarinic cholinergic receptor M3 (Homo sapiens, UniProt P20309); assay: Cerep Bioprint radioligand binding assay: M3; conditions: read-out: percent inhibition of the binding of a radiolabeled ligand
[21] = molecular target: dopaminergic receptor D2S (Homo sapiens, UniProt P14416)
histaminic receptor H1 = histaminic receptor H1 (Homo sapiens, UniProt P35367)
5-HT2A [22] = molecular target: T5, 5-HT2A (Homo sapiens, UniProt P28223); assay: cell-based
[23] = molecular target: muscarinic cholinergic receptor M2 (Homo sapiens, UniProt P08172); assay: Cerep Bioprint radioligand binding assay: M2; conditions: read-out: percent inhibition of the binding of a radiolabeled ligand
[24] = molecular target: adrenergic alpha1A (ADRα1A) receptor (Homo sapiens, UniProt P35348); assay: Cerep Bioprint radioligand binding assay: ADRα1A; conditions: read-out: percent inhibition of the binding of a radiolabeled ligand
ADRβ2 = ADRβ2 (Homo sapiens, UniProt P07550); assay: cell-based
ADRα2C = ADRα2C (Homo sapiens, UniProt P18825)
ADRα2A = ADRα2A (Homo sapiens, UniProt P08913)
5-HT2C [25] = conditions: at all concentrations except at 100 mg/day dose
ADRα2B = ADRα2B (Homo sapiens, UniProt P18089)
DAT = DAT (Homo sapiens, UniProt Q01959); assay: Cerep Bioprint radioligand binding assay: DAT; conditions: read-out: percent inhibition (activity towards DAT)
5-HT2C [26] = molecular target: T4, 5-HT2C; assay: biochemical; conditions: read-out: percent inhibition of the binding of a radiolabeled ligand
5-HT7 [27] = molecular target: T3, 5-HT7; conditions: concentrations up to 100 µM
[28] = molecular target: adrenergic alpha1B (ADRα1B) receptor (Homo sapiens, UniProt P35368); assay: Cerep Bioprint radioligand binding assay: ADRα1B; conditions: read-out: percent inhibition of the binding of a radiolabeled ligand
dopaminergic receptor D1 = dopaminergic receptor D1 (Homo sapiens, UniProt P21728)
[29] = tested on: extracellular neurotransmitter levels in the PFC, Acb, and Amg; conditions: viloxazine 50 mg/kg IP, compared to baseline or vehicle
[30] = molecular target: cholinergic muscarinic receptor M4 (Homo sapiens, UniProt P08173)
5-HT2A [31] = molecular target: T5, 5-HT2A; conditions: concentrations up to 300 µM
DA in the striatum = conditions: freely moving spontaneously hypertensive rats; cited from earlier work

T2 sequence (P41595 whole entry): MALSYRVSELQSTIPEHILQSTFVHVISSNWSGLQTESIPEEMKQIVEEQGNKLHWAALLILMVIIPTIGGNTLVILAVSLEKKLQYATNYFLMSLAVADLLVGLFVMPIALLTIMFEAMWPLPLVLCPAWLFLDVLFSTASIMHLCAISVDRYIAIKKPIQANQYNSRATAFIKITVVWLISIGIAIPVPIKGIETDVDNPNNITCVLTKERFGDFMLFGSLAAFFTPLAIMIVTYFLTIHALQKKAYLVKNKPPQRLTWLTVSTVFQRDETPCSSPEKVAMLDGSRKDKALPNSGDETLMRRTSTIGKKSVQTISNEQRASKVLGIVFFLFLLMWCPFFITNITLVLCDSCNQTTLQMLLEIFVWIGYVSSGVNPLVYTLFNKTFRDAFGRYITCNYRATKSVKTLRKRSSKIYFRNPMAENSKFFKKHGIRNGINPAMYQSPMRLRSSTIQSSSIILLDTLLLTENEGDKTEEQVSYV
Sequence of histaminic receptor H1 (P35367 whole entry): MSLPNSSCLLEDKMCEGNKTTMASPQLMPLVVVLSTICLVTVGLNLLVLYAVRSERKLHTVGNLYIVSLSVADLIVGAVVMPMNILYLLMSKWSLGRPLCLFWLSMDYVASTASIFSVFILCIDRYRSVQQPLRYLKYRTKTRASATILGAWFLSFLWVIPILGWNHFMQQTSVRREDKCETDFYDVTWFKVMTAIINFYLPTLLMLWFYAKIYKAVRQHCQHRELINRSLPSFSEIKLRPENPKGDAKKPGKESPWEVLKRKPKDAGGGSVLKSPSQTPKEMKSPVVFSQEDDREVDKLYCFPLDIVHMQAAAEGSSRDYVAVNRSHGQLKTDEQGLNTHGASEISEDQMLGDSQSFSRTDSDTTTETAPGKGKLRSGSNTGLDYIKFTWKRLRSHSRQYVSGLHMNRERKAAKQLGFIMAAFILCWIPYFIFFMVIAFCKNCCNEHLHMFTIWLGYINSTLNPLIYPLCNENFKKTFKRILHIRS
Sequence of cholinergic muscarinic receptor M4 (P08173 whole entry): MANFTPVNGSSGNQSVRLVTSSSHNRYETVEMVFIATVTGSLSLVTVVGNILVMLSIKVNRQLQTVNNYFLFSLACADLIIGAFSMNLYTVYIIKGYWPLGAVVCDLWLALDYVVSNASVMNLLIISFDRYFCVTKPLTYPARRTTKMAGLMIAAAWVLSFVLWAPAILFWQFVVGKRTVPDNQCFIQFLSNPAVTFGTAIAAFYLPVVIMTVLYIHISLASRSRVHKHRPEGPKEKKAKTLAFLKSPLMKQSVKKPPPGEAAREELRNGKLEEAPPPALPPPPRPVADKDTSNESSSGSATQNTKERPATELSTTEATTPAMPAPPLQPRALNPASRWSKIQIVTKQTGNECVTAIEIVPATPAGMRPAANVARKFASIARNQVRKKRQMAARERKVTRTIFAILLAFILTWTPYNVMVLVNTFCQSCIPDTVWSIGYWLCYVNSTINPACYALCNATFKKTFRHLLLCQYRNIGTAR
Sequence of dopaminergic receptor D2S (P14416 1-414 isoform P14416-2): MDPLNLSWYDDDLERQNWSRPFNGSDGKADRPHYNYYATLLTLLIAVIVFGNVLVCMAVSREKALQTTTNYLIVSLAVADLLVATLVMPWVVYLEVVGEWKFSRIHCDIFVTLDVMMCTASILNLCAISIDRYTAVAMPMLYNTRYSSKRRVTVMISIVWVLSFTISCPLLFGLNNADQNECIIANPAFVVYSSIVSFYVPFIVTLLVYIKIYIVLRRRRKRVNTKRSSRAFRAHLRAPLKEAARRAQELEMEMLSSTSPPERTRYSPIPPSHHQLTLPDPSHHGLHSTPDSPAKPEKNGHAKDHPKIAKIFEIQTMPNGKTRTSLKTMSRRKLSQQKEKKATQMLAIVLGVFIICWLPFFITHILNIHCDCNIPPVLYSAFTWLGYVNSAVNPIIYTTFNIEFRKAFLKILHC
Sequence of NET (Rattus norvegicus, UniProt Q63380) (Q63380 1-617): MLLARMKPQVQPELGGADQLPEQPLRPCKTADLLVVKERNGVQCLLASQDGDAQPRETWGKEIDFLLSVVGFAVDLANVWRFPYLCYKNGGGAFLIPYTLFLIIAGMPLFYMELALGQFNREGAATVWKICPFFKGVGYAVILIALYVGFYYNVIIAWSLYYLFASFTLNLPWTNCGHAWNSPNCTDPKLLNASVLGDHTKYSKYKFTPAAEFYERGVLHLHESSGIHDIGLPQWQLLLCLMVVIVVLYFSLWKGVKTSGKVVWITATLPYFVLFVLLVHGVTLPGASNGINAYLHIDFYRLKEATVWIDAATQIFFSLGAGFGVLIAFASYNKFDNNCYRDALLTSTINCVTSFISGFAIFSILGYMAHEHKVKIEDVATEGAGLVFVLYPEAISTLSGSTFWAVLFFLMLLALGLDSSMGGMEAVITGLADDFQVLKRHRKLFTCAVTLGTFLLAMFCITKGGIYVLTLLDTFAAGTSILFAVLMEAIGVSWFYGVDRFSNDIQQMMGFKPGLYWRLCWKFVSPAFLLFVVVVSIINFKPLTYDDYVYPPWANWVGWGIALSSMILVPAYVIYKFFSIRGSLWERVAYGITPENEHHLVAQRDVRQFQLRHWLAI
T4 sequence (P28335 33-458): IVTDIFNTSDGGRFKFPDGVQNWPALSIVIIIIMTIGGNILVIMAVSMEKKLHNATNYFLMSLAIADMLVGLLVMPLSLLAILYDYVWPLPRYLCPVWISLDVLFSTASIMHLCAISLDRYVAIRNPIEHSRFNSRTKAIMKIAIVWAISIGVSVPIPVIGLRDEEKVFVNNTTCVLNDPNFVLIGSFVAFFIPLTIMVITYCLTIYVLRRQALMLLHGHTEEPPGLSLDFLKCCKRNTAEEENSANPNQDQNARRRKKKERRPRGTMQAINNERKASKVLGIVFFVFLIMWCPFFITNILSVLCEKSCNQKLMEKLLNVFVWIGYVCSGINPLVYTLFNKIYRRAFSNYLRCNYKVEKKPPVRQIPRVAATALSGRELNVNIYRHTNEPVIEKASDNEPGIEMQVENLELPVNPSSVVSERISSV
T1 sequence (P31645 whole entry, species assumed): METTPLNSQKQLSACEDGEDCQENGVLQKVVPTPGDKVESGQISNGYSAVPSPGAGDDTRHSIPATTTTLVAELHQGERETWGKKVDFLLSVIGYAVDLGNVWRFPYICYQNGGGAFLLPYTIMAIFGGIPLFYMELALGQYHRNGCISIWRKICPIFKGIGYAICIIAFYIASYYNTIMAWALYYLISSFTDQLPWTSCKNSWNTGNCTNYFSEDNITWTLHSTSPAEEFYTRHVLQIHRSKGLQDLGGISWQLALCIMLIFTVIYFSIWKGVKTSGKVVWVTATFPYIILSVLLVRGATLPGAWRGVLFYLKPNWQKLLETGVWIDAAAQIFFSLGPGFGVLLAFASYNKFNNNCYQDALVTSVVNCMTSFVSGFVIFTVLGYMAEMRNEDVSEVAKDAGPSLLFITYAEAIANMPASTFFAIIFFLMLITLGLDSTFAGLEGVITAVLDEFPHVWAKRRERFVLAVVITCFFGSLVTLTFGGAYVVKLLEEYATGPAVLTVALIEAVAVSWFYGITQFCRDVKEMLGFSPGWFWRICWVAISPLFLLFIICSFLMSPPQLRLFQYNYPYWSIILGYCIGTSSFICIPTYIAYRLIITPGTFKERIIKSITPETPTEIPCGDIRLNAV
Sequence of cholinergic muscarinic receptor M1 (P11229 whole entry): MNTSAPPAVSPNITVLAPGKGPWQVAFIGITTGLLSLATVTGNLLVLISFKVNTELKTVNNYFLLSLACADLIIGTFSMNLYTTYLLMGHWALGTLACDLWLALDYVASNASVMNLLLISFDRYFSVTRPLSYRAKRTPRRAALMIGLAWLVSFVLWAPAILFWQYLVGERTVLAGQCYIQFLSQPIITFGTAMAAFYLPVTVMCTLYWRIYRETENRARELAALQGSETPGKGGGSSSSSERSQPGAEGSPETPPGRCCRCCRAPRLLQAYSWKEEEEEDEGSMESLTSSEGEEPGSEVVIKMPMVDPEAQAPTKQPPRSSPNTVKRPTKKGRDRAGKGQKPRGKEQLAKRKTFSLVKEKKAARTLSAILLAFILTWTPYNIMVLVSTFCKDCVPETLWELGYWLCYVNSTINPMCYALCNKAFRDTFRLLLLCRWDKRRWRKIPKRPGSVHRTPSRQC
Sequence of dopaminergic receptor D1 (P21728 whole entry): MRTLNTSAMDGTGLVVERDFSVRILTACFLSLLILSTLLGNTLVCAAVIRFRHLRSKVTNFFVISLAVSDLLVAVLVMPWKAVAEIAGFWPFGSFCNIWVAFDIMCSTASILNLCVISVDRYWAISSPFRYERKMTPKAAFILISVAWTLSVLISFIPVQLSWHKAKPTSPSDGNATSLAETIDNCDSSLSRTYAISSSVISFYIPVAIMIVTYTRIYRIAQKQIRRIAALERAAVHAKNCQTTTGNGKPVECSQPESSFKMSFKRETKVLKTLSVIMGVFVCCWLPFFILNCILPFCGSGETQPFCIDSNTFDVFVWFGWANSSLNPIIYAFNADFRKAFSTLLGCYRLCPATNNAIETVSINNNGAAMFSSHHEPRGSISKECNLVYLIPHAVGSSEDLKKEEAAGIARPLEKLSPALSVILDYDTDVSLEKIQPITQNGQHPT
T5 sequence (P28223 whole entry, species assumed): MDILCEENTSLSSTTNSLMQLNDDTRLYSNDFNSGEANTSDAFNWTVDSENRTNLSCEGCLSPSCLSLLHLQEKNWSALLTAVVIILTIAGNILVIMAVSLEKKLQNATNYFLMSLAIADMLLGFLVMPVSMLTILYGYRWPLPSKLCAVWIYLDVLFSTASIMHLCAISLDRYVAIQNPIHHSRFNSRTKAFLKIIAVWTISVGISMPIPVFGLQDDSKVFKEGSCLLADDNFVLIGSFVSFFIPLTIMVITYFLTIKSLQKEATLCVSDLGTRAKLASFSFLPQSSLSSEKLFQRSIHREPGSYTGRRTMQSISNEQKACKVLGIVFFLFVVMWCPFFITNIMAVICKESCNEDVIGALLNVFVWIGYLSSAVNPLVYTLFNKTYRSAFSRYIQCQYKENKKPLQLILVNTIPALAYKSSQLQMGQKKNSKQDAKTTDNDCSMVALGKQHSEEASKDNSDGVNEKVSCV
Sequence of His receptor H1 (P35367 whole entry): as the sequence (P35367 whole entry) above

CNCC[C@@H](Oc1ccccc1C)c1ccccc1 [Atomoxetine, atomoxetine]
effect on 5-HT in rat and mouse PFC by microdialysis [1]: not found to functionally increase 5-HT
SERT occupancy (SERT [2]): > 85%
affinity for neuronal receptors (neuronal receptors): does not possess appreciable affinity

CCOc1ccccc1OCC1CNCCO1 (centres unmarked) [Viloxazine, Viloxazine hydrochloride]
inhibition at 10 µM (His receptor H2): < 25%
agonistic or antagonistic activity towards 5-HT1A (5-HT1A): did not show any significant agonistic or antagonistic activity
agonistic or antagonistic activity towards ADRβ1 (ADRβ1): either very weak (IC50 > 150 µM) or no significant agonistic or antagonistic activity
pKi (5-HT2B [3]; Ki for 5-HT2B, constant of binding used for receptor occupancy): 5.19
inhibition at 10 µM (5-HT2B [3]; read-out: percent inhibition of the binding of a radiolabeled ligand): > 50%
pIC50 (ADRα1B): 4.03
agonistic or antagonistic activity towards 5-HT1B (5-HT1B [4]): did not show any significant agonistic or antagonistic activity
inhibition at 10 µM (5-HT7 [5]): > 50%
inhibition at 10 µM [6]: < 25%
binding to the choline transporter (CHT-1) [7]: negligible binding
inhibition at 10 µM [8]: ~10%
inhibition at 10 µM (DA receptor D2S): < 25%
agonistic or antagonistic activity towards 5-HT6 (5-HT6): did not show any significant agonistic or antagonistic activity
binding to the GABA transporter (GAT) (GABA transporter (GAT)): negligible binding
inhibition at 10 µM (NET [9]): > 50%
pIC50 (5-HT2B [10]): 4.57
inhibition at 10 µM [11]: < 25%
percent inhibition of the binding of a radiolabeled ligand (5-HT1B [12]): > 50%
pIC50 (NET [13]): 6.59 and ~6.52
agonistic or antagonistic activity towards ADRα1A (ADRα1A): either very weak (IC50 > 150 µM) or no significant agonistic or antagonistic activity
antagonistic activity towards M1 [14]: either very weak (IC50 > 150 µM) or no antagonistic activity
agonistic activity towards M1 ([14]; concentrations up to 300 µM): no significant agonistic activity
agonistic or antagonistic activity towards 5-HT1D (5-HT1D): did not show any significant agonistic or antagonistic activity
binding to SERT (SERT [15]): negligible binding
inhibition at 100 µM (5-HT7 [16]): 52%
antagonistic activity towards M3 [17]: either very weak (IC50 > 150 µM) or no antagonistic activity
agonistic activity towards M3 ([17]; concentrations up to 300 µM): no significant agonistic activity
antagonistic activity towards D3 (dopaminergic receptor D3): either very weak (IC50 > 150 µM) or no antagonistic activity
agonistic activity towards D3 (dopaminergic receptor D3; concentrations up to 300 µM): no significant agonistic activity
inhibition at 10 µM (His receptor H1): < 25%
inhibition at 10 µM (DA receptor D1): < 25%
calculated 5-HT2B occupancy at clinical doses (5-HT2B [18]): higher than 80%
inhibition at 10 µM (DA receptor D3): < 25%
Emax (5-HT2C [19]): 78.6%
inhibition at 10 µM [20]: < 25%
antagonistic activity towards D2S [21]: either very weak (IC50 > 150 µM) or no antagonistic activity
agonistic activity towards D2S ([21]; concentrations up to 300 µM): no significant agonistic activity
antagonistic activity towards H1 (histaminic receptor H1): either very weak (IC50 > 150 µM) or no antagonistic activity
agonistic activity towards H1 (histaminic receptor H1; concentrations up to 300 µM): no significant agonistic activity
pIC50 (5-HT2A [22]): < 3.52
inhibition at 10 µM [23]: < 25%
inhibition at 10 µM [24]: > 50%
pIC50 (ADRβ2): 4.17
agonistic or antagonistic activity towards ADRα2C (ADRα2C): either very weak (IC50 > 150 µM) or no significant agonistic or antagonistic activity
agonistic or antagonistic activity towards ADRα2A (ADRα2A): either very weak (IC50 > 150 µM) or no significant agonistic or antagonistic activity
calculated 5-HT2C occupancy at clinical doses (5-HT2C [25]): higher than 80%
agonistic or antagonistic activity towards ADRα2B (ADRα2B): either very weak (IC50 > 150 µM) or no significant agonistic or antagonistic activity
inhibition at 10 µM (DAT): ~10%
inhibition at 10 µM (5-HT2C [26]): > 50%
agonistic activity at 5-HT7 (5-HT7 [27]): no agonistic activity
inhibition at 10 µM [28]: > 50%
antagonistic activity towards D1 (dopaminergic receptor D1): either very weak (IC50 > 150 µM) or no antagonistic activity
agonistic activity towards D1 (dopaminergic receptor D1; concentrations up to 300 µM): no significant agonistic activity
change in extracellular level of ACh [29]: No significant changes
change in extracellular level of GABA [29]: No significant changes
change in extracellular level of Glu [29]: No significant changes
change in extracellular level of His [29]: No significant changes
antagonistic activity towards M4 [30]: either very weak (IC50 > 150 µM) or no antagonistic activity
agonistic activity towards M4 ([30]; concentrations up to 300 µM): no significant agonistic activity
agonistic effect at 5-HT2A (5-HT2A [31]): no agonistic effect

C[C@H](N)Cc1ccccc1 [d-amphetamine]
increase of DA from the baseline level in the striatum (DA in the striatum): 700%

C[C@@H](N)Cc1ccccc1 [l-amphetamine]
increase of DA from the baseline level in the striatum (DA in the striatum): 1,200%

— article PMC7473988 (Journal of Experimental Pharmacology, 2020)
